Biological target: T1, human NEP (Homo sapiens, UniProt P08473)
T1 construct: purchased R&D Systems, Minneapolis, Minn; 1182-ZN
Experiment: In vitro enzyme inhibition assay at human NEP (fluorogenic peptide substrate)
Type: biochemical
Conditions: recombinant human NEP, substrate Mca-D-Arg-Arg-Leu-Dap-(Dnp)-OH 10 μM, 37° C., values given as ranges; for Ki: read-out: pKi values at human NEP (converted)
Outline: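 Recombinant human NEP pre-incubated 30 min at 37 °C with compound (10 μM to 20 pM), then 10 μM Mca-D-Arg-Arg-Leu-Dap-(Dnp)-OH in 50 mM HEPES pH 7.5, 100 mM NaCl, 0.01% Tween-20, 10 μM ZnSO4. Stopped after 20 min with acetic acid, fluorescence read at 320/405 nm; Ki from nonlinear fit, reported as pKi.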

T1 sequence (P08473 whole entry): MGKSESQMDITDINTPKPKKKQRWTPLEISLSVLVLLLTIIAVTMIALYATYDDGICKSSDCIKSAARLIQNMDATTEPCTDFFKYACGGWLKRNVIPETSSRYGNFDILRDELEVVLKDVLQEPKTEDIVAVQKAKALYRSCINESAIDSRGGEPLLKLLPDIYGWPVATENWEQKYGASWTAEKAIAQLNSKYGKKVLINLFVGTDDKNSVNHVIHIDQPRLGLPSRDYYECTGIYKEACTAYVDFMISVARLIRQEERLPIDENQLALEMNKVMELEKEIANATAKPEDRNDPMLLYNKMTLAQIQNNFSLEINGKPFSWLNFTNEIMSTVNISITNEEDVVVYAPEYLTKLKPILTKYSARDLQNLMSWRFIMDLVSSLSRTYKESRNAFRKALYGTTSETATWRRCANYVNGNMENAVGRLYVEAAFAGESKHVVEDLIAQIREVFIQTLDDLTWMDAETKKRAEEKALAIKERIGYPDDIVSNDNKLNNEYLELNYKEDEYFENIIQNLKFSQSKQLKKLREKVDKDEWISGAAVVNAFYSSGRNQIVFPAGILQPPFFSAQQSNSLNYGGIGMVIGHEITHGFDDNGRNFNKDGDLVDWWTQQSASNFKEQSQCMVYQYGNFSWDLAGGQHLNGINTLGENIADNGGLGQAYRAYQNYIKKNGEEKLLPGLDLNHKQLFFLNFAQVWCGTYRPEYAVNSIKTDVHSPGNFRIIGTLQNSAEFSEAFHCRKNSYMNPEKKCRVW

Row | Structure (SMILES) | Ki | pKi values at human NEP
1 | COc1ccc(Cn2cc(C(=O)N[C@H](Cc3ccccc3Cl)[C@@H](O)C(=O)O)cn2)c(F)c1F [Example 4-1, (2R,3R)-4-(2-Chloro-phenyl)-3-{[1-(2,3-difluoro-4-methoxy-benzyl)-1H-pyrazole-4-carbonyl]-amino}-2-hydroxy-butyric acid] | 1.26 to 10 nM | –
2 | CN(C)C(=O)c1cc(C(=O)N[C@H](Cc2ccccc2C(F)(F)F)[C@@H](O)C(=O)O)n[nH]1 [Example 6-7, (2R,3R)-3-[(5-Dimethylcarbamoyl-1H-pyrazole-3-carbonyl)-amino]-2-hydroxy-4-(2-trifluoromethyl-phenyl)-butyric acid] | 1.26 to 10 nM | –
3 | COc1ccc(Cn2nc(C(=O)N[C@H](Cc3ccccc3Cl)[C@@H](O)C(=O)O)cc2O)c(F)c1F [Example 2-68, (2R,3R)-4-(2-Chloro-phenyl)-3-{[1-(2,3-difluoro-4-methoxy-benzyl)-5-hydroxy-1H-pyrazole-3-carbonyl]-amino}-2-hydroxy-butyric acid] | 12.6 to 100 nM | –
4 | COCCN(C)C(=O)c1cc(C(=O)N[C@H](Cc2ccccc2C(F)(F)F)[C@@H](O)C(=O)O)n[nH]1 [Example 6-9] | – | 7.0-7.9
5 | O=C(O)C[C@@H](Cc1ccccc1Cl)NC(=O)c1cc(C(=O)O)n(Cc2ccc(Cl)cc2)n1 [Example 11-3, 5-[(R)-2-Carboxy-1-(2-chloro-benzyl)-ethylcarbamoyl]-2-(4-chloro-benzyl)-2H-pyrazole-3-carboxylic acid] | 12.6 to 100 nM | –
6 | O=C(N[C@H](Cc1ccccc1)[C@@H](O)C(=O)O)c1ccn(Cc2ccc(Cl)cc2)n1 [Example 8-16, (2R,3R)-3-{[1-(4-Chloro-benzyl)-1H-pyrazole-3-carbonyl]-amino}-2-hydroxy-4-phenyl-butyric acid] | 12.6 to 100 nM | –
7 | O=C(N[C@H](Cc1ccccc1Cl)[C@@H](O)C(=O)O)c1cc(C(=O)O)n(Cc2c(F)cc(F)cc2F)n1 [Example 2-42, 5-[(1R,2R)-2-Carboxy-1-(2-chloro-benzyl)-2-hydroxy-ethylcarbamoyl]-2-(2,4,6-trifluoro-benzyl)-2H-pyrazole-3-carboxylic acid] | 1.26 to 10 nM | –
8 | CN(C)C(=O)c1cc(C(=O)N[C@H](Cc2ccccc2Cl)[C@@H](O)C(=O)O)n[nH]1 [Example 2-54] | – | 8.0-8.9
9 | O=C(N[C@H](Cc1ccccc1Cl)[C@@H](O)C(=O)O)c1cc(-c2ccccc2Cl)n(-c2ccc(Cl)c(Cl)c2)n1 [Example 2-63, (2R,3R)-4-(2-Chloro-phenyl)-3-{[5-(2-chloro-phenyl)-1-(3,4-dichloro-phenyl)-1H-pyrazole-3-carbonyl]-amino}-2-hydroxy-butyric acid] | 12.6 to 100 nM | –
10 | O=C(N[C@H](Cc1ccccc1Cl)[C@@H](O)C(=O)O)c1cc(C(=O)O)n(Cc2cc(F)ccc2Cl)n1 [Example 2-15, 5-[(1R,2R)-2-Carboxy-1-(2-chloro-benzyl)-2-hydroxy-ethylcarbamoyl]-2-(2-chloro-5-fluoro-benzyl)-2H-pyrazole-3-carboxylic acid] | 1.26 to 10 nM | –
11 | O=C(N[C@H](Cc1ccccc1Cl)[C@@H](O)C(=O)O)c1cc(NC(=O)c2ccccc2Cl)[nH]n1 [Example 2-57, (2R,3R)-3-{[5-(2-Chloro-benzoylamino)-1H-pyrazole-3-carbonyl]-amino}-4-(2-chloro-phenyl)-2-hydroxy-butyric acid] | 12.6 to 100 nM | –
12 | O=C(N[C@H](Cc1ccccc1Cl)[C@@H](O)C(=O)O)c1cc(-c2ccco2)[nH]n1 [Example 2-52, (2R,3R)-4-(2-Chloro-phenyl)-3-[(5-furan-2-yl-1H-pyrazole-3-carbonyl)-amino]-2-hydroxy-butyric acid] | 12.6 to 100 nM | –
13 | O=C(N[C@H](Cc1ccccc1Cl)[C@@H](O)C(=O)O)c1cc(C(=O)N2CCOCC2)[nH]n1 [Example 2-55, (2R,3R)-4-(2-Chloro-phenyl)-2-hydroxy-3-{[5-(morpholine-4-carbonyl)-1H-pyrazole-3-carbonyl]-amino}-butyric acid] | 12.6 to 100 nM | –
14 | COc1c(F)c(F)c(Cn2nc(C(=O)N[C@H](Cc3ccccc3Cl)[C@@H](O)C(=O)O)cc2C(C)=O)c(F)c1F [Example 2-71, (2R,3R)-3-{[5-Acetyl-1-(2,3,5,6-tetrafluoro-4-methoxy-benzyl)-1H-pyrazole-3-carbonyl]-amino}-4-(2-chloro-phenyl)-2-hydroxy-butyric acid] | ≤ 1 nM | –
15 | COc1ccc(Cn2ccc(C(=O)N[C@H](Cc3ccccc3Cl)[C@@H](O)C(=O)O)n2)c(F)c1 [Example 2-66, (2R,3R)-4-(2-Chloro-phenyl)-3-{[1-(2-fluoro-4-methoxy-benzyl)-1H-pyrazole-3-carbonyl]-amino}-2-hydroxy-butyric acid] | 1.26 to 10 nM | –
16 | O=C(N[C@H](Cc1ccccc1Cl)[C@@H](O)C(=O)O)c1cc(C(=O)O)n(Cc2c(F)ccc(Cl)c2F)n1 [Example 2-14, 5-[(1R,2R)-2-Carboxy-1-(2-chloro-benzyl)-2-hydroxy-ethylcarbamoyl]-2-(3-chloro-2,6-difluoro-benzyl)-2H-pyrazole-3-carboxylic acid] | 1.26 to 10 nM | –
17 | O=C(N[C@H](Cc1ccccc1Cl)[C@@H](O)C(=O)O)c1cc(-c2ccc(F)cc2)n[nH]1 [Example 3-3, (2R,3R)-4-(2-Chloro-phenyl)-3-{[5-(4-fluoro-phenyl)-2H-pyrazole-3-carbonyl]-amino}-2-hydroxy-butyric acid] | 12.6 to 100 nM | –

Continued, in another order:

Row | Ki | Structure (SMILES) | pKi values at human NEP
18 | 1.26 to 10 nM | COc1cccc(Cn2nc(C(=O)N[C@H](Cc3ccccc3Cl)[C@@H](O)C(=O)O)cc2C(=O)O)c1 [Example 2-11, 5-[(1R,2R)-2-Carboxy-1-(2-chloro-benzyl)-2-hydroxy-ethylcarbamoyl]-2-(3-methoxy-benzyl)-2H-pyrazole-3-carboxylic acid] | –
19 | 12.6 to 100 nM | O=C(N[C@H](Cc1ccccc1Cl)[C@@H](O)C(=O)O)c1cc(C(=O)O)n(CCc2ccccc2)n1 [Example 2-59, 5-[(1R,2R)-2-Carboxy-1-(2-chloro-benzyl)-2-hydroxy-ethylcarbamoyl]-2-phenethyl-2H-pyrazole-3-carboxylic acid] | –
20 | ≤ 1 nM | O=C(N[C@H](Cc1ccccc1Cl)[C@@H](O)C(=O)O)c1cc(C(=O)O)n(Cc2ccc(OC(F)(F)F)c(F)c2)n1 [Example 2-39, 5-[(1R,2R)-2-Carboxy-1-(2-chloro-benzyl)-2-hydroxy-ethylcarbamoyl]-2-(3-fluoro-4-trifluoromethoxy-benzyl)-2H-pyrazole-3-carboxylic acid] | –
21 | 1.26 to 10 nM | O=C(N[C@H](Cc1ccccc1Cl)[C@@H](O)C(=O)O)c1cc(C(=O)O)n(Cc2ccccc2Cl)n1 [Example 2-19, 5-[(1R,2R)-2-Carboxy-1-(2-chloro-benzyl)-2-hydroxy-ethylcarbamoyl]-2-(2-chloro-benzyl)-2H-pyrazole-3-carboxylic acid] | –
22 | 1.26 to 10 nM | COc1cccc(Cn2nc(C(=O)N[C@H](Cc3ccccc3)[C@@H](O)C(=O)O)cc2C(=O)O)c1 [Example 8-5, 5-((1R,2R)-1-Benzyl-2-carboxy-2-hydroxy-ethylcarbamoyl)-2-(3-methoxy-benzyl)-2H-pyrazole-3-carboxylic acid] | –
23 | 1.26 to 10 nM | O=C(N[C@H](Cc1ccccc1)[C@@H](O)C(=O)O)c1cc(C(=O)O)n(Cc2ccccc2)n1 [Example 8-8, 2-Benzyl-5-((1R,2R)-1-benzyl-2-carboxy-2-hydroxy-ethylcarbamoyl)-2H-pyrazole-3-carboxylic acid] | –
24 | 12.6 to 100 nM | COc1ccc(Cn2nc(C(=O)N[C@H](Cc3ccccc3Cl)[C@@H](O)C(=O)O)cc2C(=O)N(C)C)cc1 [Example 2-73, (2R,3R)-4-(2-Chloro-phenyl)-3-{[5-dimethylcarbamoyl-1-(4-methoxy-benzyl)-1H-pyrazole-3-carbonyl]-amino}-2-hydroxy-butyric acid] | –
25 | ≤ 1 nM | COc1cc(F)c(Cn2nc(C(=O)N[C@H](Cc3ccccc3Cl)[C@@H](O)C(=O)O)cc2C(=O)O)c(F)c1 [Example 2-32, 5-[(1R,2R)-2-Carboxy-1-(2-chloro-benzyl)-2-hydroxy-ethylcarbamoyl]-2-(2,6-difluoro-4-methoxy-benzyl)-2H-pyrazole-3-carboxylic acid] | –
26 | 12.6 to 100 nM | O=C(N[C@H](Cc1ccccc1)[C@@H](O)C(=O)O)c1cc(C(=O)O)n(Cc2cccnc2)n1 [Example 8-15, 5-((1R,2R)-1-Benzyl-2-carboxy-2-hydroxy-ethylcarbamoyl)-2-pyridin-3-ylmethyl-2H-pyrazole-3-carboxylic acid] | –
27 | 1.26 to 10 nM | COc1ccc(Cn2nc(C(=O)N[C@H](Cc3ccccc3)[C@@H](O)C(=O)O)cc2C2CC2)cc1 [Example 8-20, (2R,3R)-3-{[5-Cyclopropyl-1-(4-methoxy-benzyl)-1H-pyrazole-3-carbonyl]-amino}-2-hydroxy-4-phenyl-butyric acid] | –
28 | 12.6 to 100 nM | O=C(N[C@H](Cc1ccccc1Cl)[C@@H](O)C(=O)O)c1cc(C(=O)O)n(Cc2ccc(Cl)c(OC(F)(F)F)c2)n1 [Example 2-13, 5-[(1R,2R)-2-Carboxy-1-(2-chloro-benzyl)-2-hydroxy-ethylcarbamoyl]-2-(4-chloro-3-trifluoromethoxy-benzyl)-2H-pyrazole-3-carboxylic acid] | –
29 | 1.26 to 10 nM | COc1c(F)cc(Cn2nc(C(=O)N[C@H](Cc3ccccc3Cl)[C@@H](O)C(=O)O)cc2C(=O)O)cc1Cl [Example 2-17, 5-[(1R,2R)-2-Carboxy-1-(2-chloro-benzyl)-2-hydroxy-ethylcarbamoyl]-2-(3-chloro-5-fluoro-4-methoxy-benzyl)-2H-pyrazole-3-carboxylic acid] | –
30 | 1.26 to 10 nM | COc1ccc(Cn2nc(C(=O)N[C@H](Cc3ccccc3Cl)[C@@H](O)C(=O)O)cc2C(C)=O)cc1 [Example 2-70, (2R,3R)-3-{[5-Acetyl-1-(4-methoxy-benzyl)-1H-pyrazole-3-carbonyl]-amino}-4-(2-chloro-phenyl)-2-hydroxy-butyric acid] | –

Source: patent US8993752B2, “Neprilysin inhibitors” (Theravance Biopharma R&D IP, LLC, priority 2011, dated 2015)
